We go through three substances from patent US5817455A, “Method for in vitro inactivation of RNase S” (Novagen, Inc., priority 1996, dated 1998).

One assay relates to Ribonuclease S. In words: Ribonuclease S activity, degradation of yeast polymeric RNA (absorbance at 255 nm). Particulars: for effect on RNase S activity (in words): consecutive addition to S-protein + bS15 reaction mix; for Activity: initial velocity relative to S-protein (50 ng) plus S15 (10 μg) = 100%, consecutive addition of S-protein (50 ng), bS15 (approx. 5 μg), streptavidin (10 μg), S15 (5 μg), 75 ug/mL yeast RNA, pH 7.0, 25° C., 2 minutes. It is filed as biochemical, bovine. The procedure:
Ribonuclease S activity was measured in terms of degradation of yeast polymeric RNA. Degradation was monitored as an increase in absorbance at 255 nm of the reaction cocktail. The reaction cocktail included 50 mM imidazole.HCl buffer, pH 7.0, 0.1 M NaCl, and 75 ug/mL yeast RNA, in a volume of 800 uL. The change in absorbance was monitored at 25° C. for 2 minutes following the consecutive addition of S-protein (50 ng), bS15 (approx. 5 μg), streptavidin (10 μg), and authentic S15 (5 μg).
For comparison, the degradative activity in a reaction mix containing S-protein (50 ng) plus S15 (10 μg) is defined to be 100%. […] The initial velocity of each reaction was determined from the initial slope of a plot of absorbance v. time.

For another assay, the system named is S-protein. Particulars: cited from earlier work.

Where only a bound is given, the exact number is not on record here.

For the substance streptavidin, in the assay with Ribonuclease S, the “effect on RNase S activity (in words)” value is given as “sufficient to inactivate RNase S” and the Activity is on record as less than 0.01%.
As to “S15: truncated S-peptide formed from the first 15 residues of the S-peptide, SEQ ID NO:1 (KETAAAKFERQHMDS)”, in the assay on Ribonuclease S, the “effect on RNase S activity (in words)” value was “RNase S activity could be reconstituted” and the Activity is 40%. Also, the “binding to S-protein compared with intact S-peptide” value in the assay on S-protein (truncated S-peptide, first 15 residues) was “binds equally well”.
For the substance “S-peptide: residues 1-20 of RNase A, subtilisin cleavage product”, the Kd on S-protein (S-peptide and S-protein, read-out: dissociation constant) was 1 nM.
